In patent publication USRE49850E1, “N-(pyridin-2-yl)-4-(thiazol-5-yl)pyrimidin-2-amine derivatives as therapeutic compounds” (AUCENTRA THERAPEUTICS PTY LTD, priority 2015, dated 2024) one finds Ki, GI50 and remaining activity data, which are given here for 15 compounds.

One test addresses T1, CDK4D1 (Homo sapiens, UniProt P11802).
T1 construct: purchased Eurofins Pharma Discovery or Reaction Biology Corporation (service)
The test is described as follows: Kinase assay CDK4/D1 (radiometric or ADP Glo). The format is biochemical. As to conditions: apparent Ki calculated from Km (ATP) and IC50; read-out: CDK inhibition Ki CDK4D1. Summed up:
(§1)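 In-house CDK4/D1 ADP-Glo: RB-CTF substrate, buffer […] pH 7.5/20 mM MgCl2/0.4 mM DTT/0.1 mg/ml BSA, ATP-initiated 40 min reaction at 37 °C, luminescence read-out; compounds tested from 10 μM to 0.5 nM in ten 1:3 steps. CDK7H, CDK2A and CDK1B plus alternative CDK4/D1 values measured radiometrically by external profilers; IC50 by logistic fit, apparent Ki via ATP Km.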

The next test has as its system MV4-11. The test is described as follows: Cell viability assay (resazurin, leukemia cell line) MV4-11. The class given is cell-based, human. As to conditions: Homo sapiens, MV4-11, 72 h; read-out: Anti-proliferative activity GI50 MV4-11. The source says:
(§2) Compounds from Example 1 were subjected to a standard MTT (3-(4,5-dimethylthiazol-2-yl)-2,5-diphenyltetrazolium bromide) and resazurin assays on solid tumour cell lines and leukemia cell lines, respectively, as previously reported (Wang S et al., J Med Chem 47:1662-1675, 2004 and Diab S. et al. CheMedChem 9:962-972, 2014).

The next test addresses T2, CDK6D3 (Homo sapiens, UniProt Q00534).
T2 construct: purchased Eurofins Pharma Discovery or Reaction Biology Corporation (service)
The test is described as follows: Kinase assay CDK6/D3 (radiometric or ADP Glo). The class given is biochemical. Particulars: apparent Ki calculated from Km (ATP) and IC50; read-out: CDK inhibition Ki CDK6D3. In short, it runs like this: (§3)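 Radiometric inhibition data for CDKs came from Eurofins or Reaction Biology profiling services; CDK4/D1 was also run in-house by ADP-Glo in […] pH 7.5, 20 mM MgCl2, 0.4 mM DTT, 0.1 mg/ml BSA with RB-CTF substrate, 40 min at 37 °C after ATP start. Ten-point 1:3 dilutions (10 μM–0.5 nM); four-parameter IC50, Ki from IC50 and ATP Km.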

For another test, the target named is CDK7H (Homo sapiens, UniProt P50613). In words: Kinase assay CDK7H (radiometric profiling service). The class given is biochemical. Particulars: for Ki: apparent Ki calculated from Km (ATP) and IC50, read-out: CDK inhibition Ki CDK7H. Summed up: as §1
CDK7H, sequence (P50613 whole entry): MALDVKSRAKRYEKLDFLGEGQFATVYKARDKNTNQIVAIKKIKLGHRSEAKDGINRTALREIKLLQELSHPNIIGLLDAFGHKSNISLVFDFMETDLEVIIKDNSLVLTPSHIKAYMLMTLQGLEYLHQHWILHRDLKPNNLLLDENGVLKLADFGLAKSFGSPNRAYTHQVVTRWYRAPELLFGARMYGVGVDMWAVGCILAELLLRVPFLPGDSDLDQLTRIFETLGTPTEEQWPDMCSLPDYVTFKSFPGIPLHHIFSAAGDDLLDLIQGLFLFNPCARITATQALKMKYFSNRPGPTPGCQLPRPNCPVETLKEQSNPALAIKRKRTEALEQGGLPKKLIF
CDK7H, sequence (P51946 whole entry partner): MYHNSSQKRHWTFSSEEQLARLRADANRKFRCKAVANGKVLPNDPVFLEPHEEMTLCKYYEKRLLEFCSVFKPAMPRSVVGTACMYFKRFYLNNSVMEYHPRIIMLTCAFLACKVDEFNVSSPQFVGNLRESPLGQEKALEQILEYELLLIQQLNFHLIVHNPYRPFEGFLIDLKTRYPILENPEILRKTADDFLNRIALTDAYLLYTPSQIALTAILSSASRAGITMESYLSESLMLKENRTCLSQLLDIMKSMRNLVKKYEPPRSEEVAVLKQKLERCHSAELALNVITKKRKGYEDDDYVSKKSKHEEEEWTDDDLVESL
CDK7H, sequence (P51948 whole entry partner): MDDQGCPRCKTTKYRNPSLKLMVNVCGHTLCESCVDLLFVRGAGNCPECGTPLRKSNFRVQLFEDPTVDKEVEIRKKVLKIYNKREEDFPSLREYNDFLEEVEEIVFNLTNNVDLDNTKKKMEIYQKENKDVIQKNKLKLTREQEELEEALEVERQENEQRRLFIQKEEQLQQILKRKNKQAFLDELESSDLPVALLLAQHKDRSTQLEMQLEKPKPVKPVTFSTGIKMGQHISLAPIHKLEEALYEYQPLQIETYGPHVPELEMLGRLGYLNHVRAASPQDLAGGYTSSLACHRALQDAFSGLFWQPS
In another test the target is T3, CDK9T1 (Homo sapiens, UniProt P50750).
T3 construct: purchased Eurofins Pharma Discovery or Reaction Biology Corporation (service)
T3 sequence (P50750 whole entry): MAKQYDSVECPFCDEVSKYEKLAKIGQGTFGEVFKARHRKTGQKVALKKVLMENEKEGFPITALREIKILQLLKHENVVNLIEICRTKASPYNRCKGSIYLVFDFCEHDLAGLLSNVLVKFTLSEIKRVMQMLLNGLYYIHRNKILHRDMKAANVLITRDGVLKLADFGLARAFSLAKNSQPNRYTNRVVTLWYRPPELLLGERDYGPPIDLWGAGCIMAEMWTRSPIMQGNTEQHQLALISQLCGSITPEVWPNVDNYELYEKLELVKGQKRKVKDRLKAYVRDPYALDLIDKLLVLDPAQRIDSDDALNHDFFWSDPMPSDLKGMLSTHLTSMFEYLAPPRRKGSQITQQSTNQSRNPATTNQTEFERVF
T3 sequence (O60563 whole entry partner): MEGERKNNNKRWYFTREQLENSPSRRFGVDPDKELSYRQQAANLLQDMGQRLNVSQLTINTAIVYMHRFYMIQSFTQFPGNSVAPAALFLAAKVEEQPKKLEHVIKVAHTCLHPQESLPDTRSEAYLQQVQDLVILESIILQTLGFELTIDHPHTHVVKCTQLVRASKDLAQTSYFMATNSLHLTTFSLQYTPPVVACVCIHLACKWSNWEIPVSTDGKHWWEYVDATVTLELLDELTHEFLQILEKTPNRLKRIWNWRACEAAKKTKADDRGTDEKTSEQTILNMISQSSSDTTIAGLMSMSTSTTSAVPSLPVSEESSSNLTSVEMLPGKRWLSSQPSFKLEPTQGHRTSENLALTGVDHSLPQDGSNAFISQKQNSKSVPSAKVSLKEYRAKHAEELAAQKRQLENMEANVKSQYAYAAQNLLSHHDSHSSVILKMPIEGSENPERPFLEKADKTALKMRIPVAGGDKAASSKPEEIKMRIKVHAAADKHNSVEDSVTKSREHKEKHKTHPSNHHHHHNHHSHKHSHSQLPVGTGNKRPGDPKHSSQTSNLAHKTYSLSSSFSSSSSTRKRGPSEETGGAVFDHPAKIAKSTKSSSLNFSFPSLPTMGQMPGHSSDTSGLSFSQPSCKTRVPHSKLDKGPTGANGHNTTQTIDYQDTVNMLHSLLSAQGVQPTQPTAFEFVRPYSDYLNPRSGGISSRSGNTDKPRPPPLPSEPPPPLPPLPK
The test is described as follows: Kinase assay CDK9/T1 (radiometric or ADP Glo). The class given is biochemical. As to conditions: apparent Ki calculated from Km (ATP) and IC50; read-out: CDK inhibition Ki CDK9T1. Summed up:
as §3

The subject of the next test is MDA-MB-453. The test is described as follows: Cell viability assay (MTT, solid tumour cell line) MDA-MB-453. The format is cell-based, human. As to conditions: Homo sapiens, MDA-MB-453, 72 h; read-out: Anti-proliferative activity GI50 MDA-MB-453.
From the text: as §2

The target of a further test is CDK1B (Homo sapiens, UniProt P06493). The test is described as follows: Kinase assay CDK1B (radiometric profiling service). The class given is biochemical. As to conditions: for Ki: apparent Ki calculated from Km (ATP) and IC50, read-out: CDK inhibition Ki CDK1B. In short, it runs like this: as §1
CDK1B, sequence (P06493 whole entry): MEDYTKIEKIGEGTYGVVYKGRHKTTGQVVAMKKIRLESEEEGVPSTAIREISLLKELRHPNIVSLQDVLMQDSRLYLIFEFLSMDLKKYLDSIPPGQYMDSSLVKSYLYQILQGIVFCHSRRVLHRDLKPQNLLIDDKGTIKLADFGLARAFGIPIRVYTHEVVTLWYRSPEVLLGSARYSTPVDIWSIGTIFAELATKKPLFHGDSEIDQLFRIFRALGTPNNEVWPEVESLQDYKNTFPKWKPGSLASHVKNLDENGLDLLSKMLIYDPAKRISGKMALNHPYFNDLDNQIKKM
CDK1B, sequence (P14635 whole entry partner): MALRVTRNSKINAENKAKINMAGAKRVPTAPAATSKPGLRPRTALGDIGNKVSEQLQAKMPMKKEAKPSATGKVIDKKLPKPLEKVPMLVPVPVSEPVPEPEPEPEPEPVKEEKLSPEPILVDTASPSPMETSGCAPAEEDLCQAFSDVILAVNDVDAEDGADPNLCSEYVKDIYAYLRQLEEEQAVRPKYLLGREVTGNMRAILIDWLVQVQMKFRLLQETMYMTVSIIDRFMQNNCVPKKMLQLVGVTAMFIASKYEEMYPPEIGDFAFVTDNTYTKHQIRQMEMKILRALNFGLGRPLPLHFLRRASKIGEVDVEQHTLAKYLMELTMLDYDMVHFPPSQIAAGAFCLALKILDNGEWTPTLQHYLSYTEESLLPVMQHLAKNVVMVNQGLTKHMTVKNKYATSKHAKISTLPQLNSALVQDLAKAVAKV
The next test addresses CDK 2A (Homo sapiens, UniProt P24941). In words: Kinase assay CDK2A (radiometric profiling service). The class given is biochemical. As to conditions: for Ki: apparent Ki calculated from Km (ATP) and IC50, read-out: CDK inhibition Ki CDK 2A. In short, it runs like this: as §1

The GI50 is the concentration at which growth is held to half of that of the control. As usually defined, the remaining activity is the activity still measured, relative to the control.

T1 sequence (P11802 whole entry): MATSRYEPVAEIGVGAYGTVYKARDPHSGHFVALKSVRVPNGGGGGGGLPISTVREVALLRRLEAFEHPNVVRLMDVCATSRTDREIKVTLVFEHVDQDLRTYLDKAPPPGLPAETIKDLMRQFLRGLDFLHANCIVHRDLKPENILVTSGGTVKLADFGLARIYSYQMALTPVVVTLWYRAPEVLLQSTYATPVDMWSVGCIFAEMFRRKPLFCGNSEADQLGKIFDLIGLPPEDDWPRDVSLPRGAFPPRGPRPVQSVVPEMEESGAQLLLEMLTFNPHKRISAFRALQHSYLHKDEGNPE
T1 sequence (P24385 whole entry partner): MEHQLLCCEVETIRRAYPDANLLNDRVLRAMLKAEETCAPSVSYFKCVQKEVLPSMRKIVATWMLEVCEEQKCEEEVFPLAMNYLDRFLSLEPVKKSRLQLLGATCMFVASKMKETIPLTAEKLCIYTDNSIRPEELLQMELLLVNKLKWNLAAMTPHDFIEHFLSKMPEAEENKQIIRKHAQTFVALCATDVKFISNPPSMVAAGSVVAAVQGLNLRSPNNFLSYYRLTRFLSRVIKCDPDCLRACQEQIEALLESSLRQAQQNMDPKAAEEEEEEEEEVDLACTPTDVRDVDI
T2 sequence (Q00534 whole entry): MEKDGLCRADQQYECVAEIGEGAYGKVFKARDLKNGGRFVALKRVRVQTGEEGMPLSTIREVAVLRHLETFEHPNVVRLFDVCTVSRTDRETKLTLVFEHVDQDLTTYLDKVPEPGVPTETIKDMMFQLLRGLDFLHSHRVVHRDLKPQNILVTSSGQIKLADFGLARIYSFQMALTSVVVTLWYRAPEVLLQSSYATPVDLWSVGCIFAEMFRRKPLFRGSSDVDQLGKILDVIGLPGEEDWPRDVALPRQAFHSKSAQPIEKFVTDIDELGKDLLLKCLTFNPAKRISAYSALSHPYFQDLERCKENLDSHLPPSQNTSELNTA
T2 sequence (P30281 whole entry partner): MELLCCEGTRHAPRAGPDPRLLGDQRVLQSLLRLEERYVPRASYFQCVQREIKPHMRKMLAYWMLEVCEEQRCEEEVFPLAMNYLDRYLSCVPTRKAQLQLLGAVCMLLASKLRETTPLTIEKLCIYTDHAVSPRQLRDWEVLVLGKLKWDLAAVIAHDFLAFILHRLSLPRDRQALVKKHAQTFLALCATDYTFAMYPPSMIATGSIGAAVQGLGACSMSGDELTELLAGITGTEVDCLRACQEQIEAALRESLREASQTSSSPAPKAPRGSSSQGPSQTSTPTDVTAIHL

With `Cc1c(-c2ccnc(Nc3ccc(N4CCN(C)CC4)cn3)n2)sc(=O)n1C` [Compound 93, 3,4-dimethyl-5-(2-((5-(4-methylpiperazin-1-yl)pyridin-2-yl)amino)pyrimidin-4-yl)thiazol-2(3H)-one], the Ki is 0.255 µM on CDK4D1, 0.915 µM at CDK6D3 and 0.84 µM at CDK9T1. Also, the values for the concentration for 50% growth inhibition (GI50) in the test on MV4-11 and in the test on MDA-MB-453 were 3.73 ± 0.357 µM and above 10 µM, respectively. Moreover, the remaining activity at 10 µM is 52% at CDK7H (compound at 10 μM, read-out: % remaining enzymatic activity at 10 μM CDK7H); 71% on CDK1B (compound at 10 μM, read-out: % remaining enzymatic activity at 10 μM CDK1B); 77% at CDK 2A (compound at 10 μM, read-out: % remaining enzymatic activity at 10 μM CDK 2A).

On to `CNc1nc(C)c(-c2nc(Nc3ccc(N4CCN(C(C)=O)CC4)cn3)ncc2F)s1` [Compound 35, 1-(4-(6-((5-fluoro-4-(4-methyl-2-(methylamino)thiazol-5-yl)pyrimidin-2-yl)amino)pyridin-3-yl)piperazin-1-yl)ethan-1-one], for which the Ki at CDK4D1 was 0.017 µM; on CDK6D3 it was 0.046 µM; at CDK7H it was above 5 µM; on CDK9T1, 4.07 µM; at CDK1B it was 1.82 µM; at CDK 2A it was 0.178 µM. Further, the GI50 in the test on MV4-11 turned out to be 0.035 ± 0.004 µM; with MDA-MB-453, 4.91 ± 0.432 µM.

`Cc1nc(NC2CCCC2)sc1-c1nc(Nc2ccc(N3CCC(N(C)C)CC3)cn2)ncc1F` [Compound 80, N-cyclopentyl-5-(2-((5-(4-(dimethylamino)piperidin-1-yl)pyridin-2-yl)amino)-5-fluoropyrimidin-4-yl)-4-methylthiazol-2-amine]: the Ki at CDK4D1 is 0.001 µM; at CDK6D3 it was 0.031 µM; at CDK7H, above 5 µM; on CDK9T1, 1.09 µM; on CDK1B, above 5 µM; on CDK 2A, 1.15 µM. The GI50 with MV4-11 amounted to 0.454 ± 0.04 µM; with MDA-MB-453, 0.356 ± 0.024 µM.

`CNc1nc(C)c(-c2nc(Nc3ccc(N4CCCNCC4)cn3)ncc2F)s1` [Compound 53, 5-(2-((5-(1,4-diazepan-1-yl)pyridin-2-yl)amino)-5-fluoropyrimidin-4-yl)-N,4-dimethylthiazol-2-amine]: the Ki at CDK4D1 was 0.003 µM; at CDK6D3 it was 0.032 µM; at CDK7H, above 5 µM; at CDK9T1, 3.04 µM; on CDK1B, 2.37 µM; on CDK 2A, 0.206 µM. Besides, the results for the GI50 with MV4-11 and in the test with MDA-MB-453 were 0.08 ± 0.013 µM and 0.362 ± 0.003 µM, respectively.

For the compound `CCn1c(C)c(-c2ccnc(Nc3ccc(N4CCN(C)CC4)cn3)n2)sc1=O` [Compound 94, 3-ethyl-4-methyl-5-(2-((5-(4-methylpiperazin-1-yl)pyridin-2-yl)amino)pyrimidin-4-yl)thiazol-2(3H)-one], the Ki on CDK4D1 was 0.033 µM; at CDK6D3, 0.32 µM; on CDK7H, 1.26 µM; at CDK9T1, 1.58 µM; at CDK1B, 3.66 µM; at CDK 2A it was 1.34 µM. The concentration for 50% growth inhibition (GI50) is 1.83 ± 0.194 µM in the test with MV4-11 and above 10 µM in the test on MDA-MB-453.

On to `CC(=O)N1CCN(c2ccc(Nc3nccc(-c4sc(N(C)C5CCCC5)nc4C)n3)nc2)CC1` [Compound 87, 1-(4-(6-((4-(2-(cyclopentyl(methyl)amino)-4-methylthiazol-5-yl)pyrimidin-2-yl)amino)pyridin-3-yl)piperazin-1-yl)ethan-1-one], for which the Ki on CDK4D1 is 0.01 µM; on CDK6D3, 0.031 µM; on CDK7H it was above 5 µM; at CDK9T1 it was above 5 µM; at CDK1B, 3.17 µM; on CDK 2A, 0.121 µM. The GI50 in the test on MV4-11 was 0.328 ± 0.007 µM; in the test with MDA-MB-453, 6.86 ± 0.798 µM.

`Cc1nc(N(C)c2ccccc2)sc1-c1ccnc(Nc2ccc(N3CCN(C)CC3)cn2)n1` [Compound 91, N,4-dimethyl-5-(2-((5-(4-methylpiperazin-1-yl)pyridin-2-yl)amino)pyrimidin-4-yl)-N-phenylthiazol-2-amine]: the Ki at CDK4D1 is 0.026 µM; at CDK6D3, 0.1 µM; at CDK7H, above 5 µM; on CDK9T1, 2 µM; at CDK1B, above 5 µM; at CDK 2A, 1.04 µM. The figures for the GI50 in the test on MV4-11 and in the test on MDA-MB-453 were 0.421 ± 0.044 µM and 0.15 ± 0.029 µM, respectively.

On to `CC(=O)N1CCN(c2ccc(Nc3ncc(F)c(-c4sc(NC5CCCC5)nc4C)n3)nc2)CC1` [Compound 69, 1-(4-(6-((4-(2-(cyclopentylamino)-4-methylthiazol-5-yl)-5-fluoropyrimidin-2-yl)amino)pyridin-3-yl)piperazin-1-yl)ethan-1-one], for which the Ki was 0.034 µM on CDK4D1; 0.023 µM at CDK6D3; above 5 µM at CDK7H; 4.99 µM on CDK9T1; above 5 µM on CDK1B; 0.228 µM on CDK 2A. Also, the GI50 amounted to 0.015 ± 0.002 µM in the test on MV4-11 and 8.11 ± 1.15 µM in the test with MDA-MB-453.

Regarding `Cc1nc(NC(C)C)sc1-c1ccnc(Nc2ccc(N3CCOCC3)cn2)n1` [Compound 58, N-isopropyl-4-methyl-5-(2-((5-morpholinopyridin-2-yl)amino)pyrimidin-4-yl)thiazol-2-amine], the Ki on CDK4D1 is 0.041 µM; on CDK6D3 it was 0.082 µM; on CDK7H, above 5 µM; at CDK9T1 it was above 5 µM; at CDK1B, above 5 µM; on CDK 2A it was 0.127 µM. Further, the concentration for 50% growth inhibition (GI50) in the test on MV4-11 was 0.032 ± 0.003 µM; with MDA-MB-453, 0.115 ± 0.024 µM.

For the compound `FC(F)(F)c1nc(NC2CCCC2)sc1-c1ccnc(Nc2ccc(N3CCOCC3)cn2)n1` [Compound 73, N-cyclopentyl-5-(2-((5-morpholinopyridin-2-yl)amino)pyrimidin-4-yl)-4-(trifluoromethyl)thiazol-2-amine], the Ki at CDK4D1 is 0.008 µM; on CDK6D3, 0.011 µM; on CDK7H, above 5 µM; on CDK9T1, above 5 µM; on CDK1B, above 5 µM; at CDK 2A, 0.154 µM. The 50% growth inhibitory concentration (GI50) with MV4-11 was determined as 0.069 ± 0.013 µM; in the test with MDA-MB-453, 0.415 ± 0.103 µM.

On to `CC(=O)N1CCN(c2ccc(Nc3ncc(C#N)c(-c4sc(C)nc4C)n3)nc2)CC1` [Compound 6, 2-((5-(4-acetylpiperazin-1-yl)pyridin-2-yl)amino)-4-(2,4-dimethylthiazol-5-yl)pyrimidine-5-carbonitrile], for which the Ki is 0.119 µM on CDK4D1; 0.201 µM at CDK6D3; above 5 µM at CDK7H; above 5 µM on CDK9T1; above 5 µM on CDK1B; above 5 µM at CDK 2A. In addition, the 50% growth inhibitory concentration (GI50) was 2.13 ± 0.969 µM in the test with MV4-11 and above 10 µM with MDA-MB-453.

As to `CSc1nc(C)c(-c2ccnc(Nc3ccc(N4CCNCC4)cn3)n2)s1` [Compound 20, 4-(4-Methyl-2-(methylthio)thiazol-5-yl)-N-(5-(piperazin-1-yl)pyridin-2-yl)pyrimidin-2-amine], the Ki was 0.005 µM on CDK4D1; 0.02 µM on CDK6D3; above 5 µM at CDK7H; 4.53 µM on CDK9T1; above 5 µM at CDK1B; 0.72 µM on CDK 2A. Besides, the results for the GI50 in the test on MV4-11 and with MDA-MB-453 were 0.671 ± 0.091 µM and 3.14 ± 0.173 µM, respectively.

In the case of `Cc1nc(C(C)C)sc1-c1ccnc(Nc2ccc(N3CCN(C)CC3)cn2)n1` [Compound 14, 4-(2-isopropyl-4-methylthiazol-5-yl)-N-(5-(4-methylpiperazin-1-yl)pyridin-2-yl)pyrimidin-2-amine], the Ki is 0.01 µM on CDK4D1; 0.029 µM at CDK6D3; above 5 µM on CDK7H; 4.18 µM at CDK9T1; 3.41 µM at CDK1B; 0.287 µM at CDK 2A. For the same compound, the GI50 in the test with MV4-11 is 0.596 ± 0.231 µM; in the test with MDA-MB-453, above 10 µM.

On to `Cc1nc(C)c(-c2ccnc(Nc3ccc(N4CCN(C)CC4)cn3)n2)s1` [Compound 3, 4-(2,4-dimethylthiazol-5-yl)-N-(5-(4-methylpiperazin-1-yl)pyridin-2-yl)pyrimidin-2-amine], for which the Ki is 0.03 µM at CDK4D1; 0.17 µM at CDK6D3; above 5 µM at CDK7H; above 5 µM at CDK9T1; above 5 µM at CDK1B; 1.93 µM at CDK 2A. Moreover, the GI50 with MV4-11 was determined as 0.053 ± 0.003 µM; in the test on MDA-MB-453, 0.378 ± 0.029 µM.

As to `CNc1nc(C)c(-c2nc(Nc3ccc(N4CCOCC4)cn3)ncc2F)s1` [Compound 38, 5-(5-fluoro-2-((5-morpholinopyridin-2-yl)amino)pyrimidin-4-yl)-N,4-dimethylthiazol-2-amine], the Ki is 0.005 µM on CDK4D1; 0.03 µM on CDK6D3; above 5 µM on CDK7H; above 5 µM at CDK9T1; 3.31 µM at CDK1B; 0.1 µM on CDK 2A. Further, the figures for the 50% growth inhibitory concentration (GI50) in the test on MV4-11 and in the test with MDA-MB-453 were 0.069 ± 0.005 µM and 5.41 ± 0.801 µM, respectively.
